Like-named read-outs stand apart in the source and are kept apart here.
How the values were obtained:
[1] = target: T1, recombinant FP-2 (falcipain-2) (Plasmodium falciparum, UniProt Q8I6U4); assay: FP-2 inhibition assay, fluorogenic substrate Cbz-Leu-Arg-AMC; assay type: biochemical; conditions: 30 nM FP-2, Cbz-Leu-Arg-AMC 25 µM, pH 5.5
T1 construct: recombinant FP-2, which was expressed and purified as previously reported; made in house
T1 sequence (Q8I6U4 244-484): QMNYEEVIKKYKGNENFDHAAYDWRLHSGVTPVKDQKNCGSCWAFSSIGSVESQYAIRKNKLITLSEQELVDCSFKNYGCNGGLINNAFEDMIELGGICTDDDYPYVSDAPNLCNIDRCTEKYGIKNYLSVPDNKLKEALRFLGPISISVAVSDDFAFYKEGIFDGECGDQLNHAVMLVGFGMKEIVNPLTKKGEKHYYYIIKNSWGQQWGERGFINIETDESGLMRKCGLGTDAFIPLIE
Method: Compounds were tested for inhibition of recombinant FP-2, which was expressed and purified as previously reported. Stock solutions of the compounds, substrate, and the positive control E64 (Sigma Aldrich, St. Louis, MO, USA) were prepared at 10 mM in 100% DMSO. The compounds were incubated in 96-well white flat-bottom plates with 30 nM recombinant FP-2 for 10 min at room temperature in an assay buffer of 100 mM sodium acetate, pH 5.5, with 5 mM DTT. After incubation, the fluorogenic substrate Cbz-Leu-Arg-AMC (R&D Systems, Minneapolis, MN, USA) was added at a concentration of 25 µM in a final assay volume of 200 µL. Fluorescence was monitored with a Varioskan Flash (ThermoScientific, Waltham, MA, USA) with excitation 355 nm and emission 460 nm. The IC50 values were calculated using GraphPad Prism v. 6 (GraphPad Software Inc., San Diego, CA, USA)) based on a sigmoidal dose response curves.

[2] = tested on: Bloodstream T. brucei parasites (T. b. brucei); assay: Antitrypanosomal activity, ATPlite cell viability assay; assay type: cell-based; conditions: Trypanosoma brucei
Method: The final compound concentrations in the microplates were 33.3 µM to 65 nM.
Bloodstream T. brucei parasites were incubated in the presence of various concentrations of the tested compounds and after 24 h or 48 h cell viability was determined using the ATPlite (PerkinElmer, Waltham, MA, USA) assay. Chlorhexidine served as positive control. […] Cell viability data was normalized to the untreated controls and analyzed using GraphPad Prism. Whenever possible, data were fitted by log(inhibitor) vs response nonlinear fit (solid lines) and IC50 values were calculated.

[3] = target: T2, recombinant rhodesain (Trypanosoma brucei rhodesiense, UniProt Q95PM0); assay: Enzyme assay against recombinant rhodesain, fluorogenic substrate Cbz-Phe-Arg-AMC; assay type: biochemical; conditions: for inhibition at 100 µM: read-out: Rhodesain Percentage of Inhibition at 100 μM
T2 construct: Rhodesain was recombinantly expressed as previously described; made in house
Method: All compounds 1-8a-b were tested against recombinant rhodesain [34] by using Cbz-Phe-Arg-AMC as a fluorogenic substrate (Table 1). First, a preliminary screening at a fixed inhibitor concentration of 100 μM was performed.
An equivalent volume of DMSO was used as the negative control, and E-64, an irreversible inhibitor of clan CA family C1 cysteine proteases, was used as the positive control. For compounds that inhibited the enzyme activity at least 50% at […], continuous assays were performed at seven different concentrations to determine dissociation constants.
Preliminary screening with rhodesain was performed with 100 µM inhibitor concentrations using an equivalent amount of DMSO as negative control. Rhodesain was recombinantly expressed as previously described. Product release from substrate hydrolysis (Cbz-Phe-Arg-AMC, 10 µM) was determined continuously over a period of 10 min. […] The assay buffer contained 50 mM sodium acetate, pH = 5.5, 5 mM EDTA, 200 mM NaCl, and 0.005% Brij. The enzyme buffer contained 5 mM DTT rather than Brij. Product formation was monitored continuously for 10 min at room temperature. Inhibitor solutions were prepared from stocks in DMSO. Each independent assay was performed twice in duplicate in 96-well plates in a total volume of 200 µL. Fluorescence of the product AMC of the substrate hydrolyses was measured using an Infinite 200 PRO microplate reader (Tecan, Männedorf, Switzerland) at room temperature with a 380 nm excitation filter and a 460 nm emission filter.

[4] = inhibitor 100 μM, n.i. = no inhibition
[5] = 24 h incubation, ATPlite cell viability, read-out: Antitrypanosomal IC50 (24 h)

T2 sequence (Q95PM0 entry or part of it): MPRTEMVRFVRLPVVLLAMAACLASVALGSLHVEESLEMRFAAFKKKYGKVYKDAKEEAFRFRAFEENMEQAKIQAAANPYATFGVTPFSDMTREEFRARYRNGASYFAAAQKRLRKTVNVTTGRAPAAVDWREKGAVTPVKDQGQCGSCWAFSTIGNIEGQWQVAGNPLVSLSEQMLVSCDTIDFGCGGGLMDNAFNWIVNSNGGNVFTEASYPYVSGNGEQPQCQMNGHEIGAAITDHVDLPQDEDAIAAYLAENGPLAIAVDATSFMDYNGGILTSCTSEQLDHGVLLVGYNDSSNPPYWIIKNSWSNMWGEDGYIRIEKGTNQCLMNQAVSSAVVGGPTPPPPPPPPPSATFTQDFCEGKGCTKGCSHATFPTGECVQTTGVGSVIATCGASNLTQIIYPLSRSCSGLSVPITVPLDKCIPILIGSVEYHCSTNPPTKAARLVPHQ

Structure (SMILES) | IC50 [1] | melting point | inhibition at 100 µM [3] | also measured
N#C[C@H](CCc1ccccc1)NC(=O)Cn1ccc2ccccc21 [1a, N-((S)-1-Cyano-3-phenylpropyl)2-(1H-indol-1-yl)acetamide] | > 50 µM | 120 to 121 °C |  | IC50 ([2]; 24 h incubation, ATPlite cell viability, fitted beyond tested range (max 33.3 µM), read-out: Antitrypanosomal IC50 (24 h)): 1500 ± 2000 µM; IC50 ([2]; 48 h incubation, ATPlite cell viability, fitted beyond tested range (max 33.3 µM), read-out: Antitrypanosomal IC50 (48 h)): 280 ± 290 µM
N#C[C@H](CCc1ccccc1)NC(=O)CCn1ccc2ccccc21 [1b, N-((S)-1-Cyano-3-phenylpropyl)-3-(1H-indol-1-yl)propanamide] | > 50 µM | 155 to 156 °C |  | Rhodesain Percentage of Inhibition at 100 μM [3, 4]: n.i.
Cc1cc2ccccc2n1CC(=O)N[C@H](C#N)CCc1ccccc1 [2a, N-((S)-1-Cyano-3-phenylpropyl)-2-(2-methyl-1H-indol-1-yl)acetamide] | > 50 µM | 131 to 133 °C |  | 
Cc1cc2ccccc2n1CCC(=O)N[C@H](C#N)CCc1ccccc1 [2b, N-((S)-1-Cyano-3-phenylpropyl)-3-(2-methyl-1H-indol-1-yl)propanamide] | 40.4 µM | 144 to 145 °C |  | IC50 [2, 5]: 12 ± 0.7 µM; IC50 ([2]; 48 h incubation, ATPlite cell viability, read-out: Antitrypanosomal IC50 (48 h)): 12 ± 3 µM
Cc1cn(CC(=O)N[C@H](C#N)CCc2ccccc2)c2ccccc12 [3a, N-((S)-1-Cyano-3-phenylpropyl)-2-(3-methyl-1H-indol-1-yl)acetamide] | > 50 µM | 114 to 115 °C |  | 
Cc1cn(CCC(=O)N[C@H](C#N)CCc2ccccc2)c2ccccc12 [3b, N-((S)-1-Cyano-3-phenylpropyl)-3-(3-methyl-1H-indol-1-yl)propanamide] |  | 130 to 132 °C | 7.8% | 
N#C[C@H](CCc1ccccc1)NC(=O)Cn1ccc2cc(F)ccc21 [4a, N-((S)-1-Cyano-3-phenylpropyl)-2-(5-fluoro-1H-indol-1-yl)acetamide] |  | 150 to 152 °C | 18.7% | 
N#C[C@H](CCc1ccccc1)NC(=O)CCn1ccc2cc(F)ccc21 [4b, N-((S)-1-Cyano-3-phenylpropyl)-3-(5-fluoro-1H-indol-1-yl)propanamide] |  | 142 to 143 °C | 1.9% | 
N#CC1(NC(=O)Cn2ccc3ccccc32)CC1 [5a, N-(1-Cyanocyclopropyl)-2-(1H-indol-1-yl)acetamide] | > 50 µM |  |  | inhibition at 100 µM [3, 4]: 6.2%
N#CC1(NC(=O)CCn2ccc3ccccc32)CC1 [5b, N-(1-Cyanocyclopropyl)-3-(1H-indol-1-yl)propanamide] | > 50 µM | 139 to 141 °C |  | inhibition at 100 µM [3, 4]: 4.4%
Cc1cc2ccccc2n1CC(=O)NC1(C#N)CC1 [6a, N-(1-Cyanocyclopropyl)-2-(2-methyl-1H-indol-1-yl)acetamide] | > 50 µM |  |  | Rhodesain Percentage of Inhibition at 100 μM [3, 4]: n.i.
Cc1cn(CC(=O)NC2(C#N)CC2)c2ccccc12 [7a, N-(1-Cyanocyclopropyl)-2-(3-methyl-1H-indol-1-yl)acetamide] | > 50 µM |  |  | Rhodesain Percentage of Inhibition at 100 μM [3, 4]: n.i.
Cc1cn(CCC(=O)NC2(C#N)CC2)c2ccccc12 [7b, N-(1-Cyanocyclopropyl)-3-(3-methyl-1H-indole-1-yl)propanamide] |  |  | 9.5% | 
N#CC1(NC(=O)Cn2ccc3cc(F)ccc32)CC1 [8a, N-(1-cyanocyclopropyl)-2-(5-fluoro-1H-indol-1-yl)acetamide] |  |  | 4.5% | 
N#CC1(NC(=O)CCn2ccc3cc(F)ccc32)CC1 [8b, N-(1-Cyanocyclopropyl)-3-(5-fluoro-1H-indol-1-yl)propanamide] |  |  | 9.6% | 
[H]/N=C(\N/C(=N/[H])NCCCCCCNC(=N)NC(=N)Nc1ccc(Cl)cc1)Nc1ccc(Cl)cc1 [Chlorhexidine, chlorhexidine, reference compound] |  |  |  | IC50 ([2]; 48 h, read-out: Antitrypanosomal IC50 (48 h)): 0.7 ± 0.2 µM; IC50 [2, 5]: 0.98 µM
CC(C)C[C@H](NC(=O)[C@H]1O[C@@H]1C(=O)O)C(=O)NCCCCN=C(N)N [E-64, reference compound] | 0.051 µM |  |  | Ki ([3]; Cbz-Phe-Arg-AMC 10 µM, pH 5.5, progress curves 10 min, Ki = IC50/(1 + [S]/Km)): 0.033 ± 0.007 µM

— article PMC11050014, “Development of Novel Peptidyl Nitriles Targeting Rhodesain and Falcipain-2 for the Treatment of Sleeping Sickness and Malaria” (International Journal of Molecular Sciences, 2024)
